The target in one test is LIM domain kinase 1 (Homo sapiens, UniProt P53667).
Test [1] addresses T1, cAMP-dependent protein kinase catalytic subunit PRKX (Homo sapiens, UniProt P51817).
T1 sequence (P51817 whole entry): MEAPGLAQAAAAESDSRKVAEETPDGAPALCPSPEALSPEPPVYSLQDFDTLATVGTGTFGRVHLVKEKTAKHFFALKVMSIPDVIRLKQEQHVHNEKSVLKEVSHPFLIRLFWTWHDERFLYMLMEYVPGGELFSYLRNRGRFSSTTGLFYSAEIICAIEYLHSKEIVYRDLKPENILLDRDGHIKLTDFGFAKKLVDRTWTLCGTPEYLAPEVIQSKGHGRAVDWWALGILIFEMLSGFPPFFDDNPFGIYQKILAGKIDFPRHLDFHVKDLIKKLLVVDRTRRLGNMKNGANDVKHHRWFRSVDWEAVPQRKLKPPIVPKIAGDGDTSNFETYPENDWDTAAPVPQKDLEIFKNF

Test [2] deals with T2, Receptor-interacting serine/threonine-protein kinase 1 (Homo sapiens, UniProt Q13546).
T2 sequence (Q13546 whole entry): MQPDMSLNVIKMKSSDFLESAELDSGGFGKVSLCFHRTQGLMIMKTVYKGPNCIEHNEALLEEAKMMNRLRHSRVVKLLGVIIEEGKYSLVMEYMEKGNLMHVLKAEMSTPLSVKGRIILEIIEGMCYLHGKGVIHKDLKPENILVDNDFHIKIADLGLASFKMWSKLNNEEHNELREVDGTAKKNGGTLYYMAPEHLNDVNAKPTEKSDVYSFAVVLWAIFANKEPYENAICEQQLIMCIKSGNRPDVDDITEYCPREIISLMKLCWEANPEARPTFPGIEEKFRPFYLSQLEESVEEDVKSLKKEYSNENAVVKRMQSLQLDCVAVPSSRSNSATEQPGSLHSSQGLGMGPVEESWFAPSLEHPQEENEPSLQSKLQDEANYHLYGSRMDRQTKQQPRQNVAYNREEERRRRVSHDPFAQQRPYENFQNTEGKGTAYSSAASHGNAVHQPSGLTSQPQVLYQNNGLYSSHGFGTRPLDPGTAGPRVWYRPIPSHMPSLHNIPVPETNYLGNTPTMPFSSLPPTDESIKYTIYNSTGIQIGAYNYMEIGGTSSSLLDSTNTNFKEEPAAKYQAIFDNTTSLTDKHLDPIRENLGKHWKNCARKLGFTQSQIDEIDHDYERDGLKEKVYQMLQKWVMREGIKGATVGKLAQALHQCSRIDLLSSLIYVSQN

Test [3] addresses Mitogen-activated protein kinase kinase kinase 9 (Homo sapiens, UniProt P80192).
The target of a further test is T3, Myotonin-protein kinase (Homo sapiens, UniProt Q09013).
T3 sequence (Q09013 whole entry): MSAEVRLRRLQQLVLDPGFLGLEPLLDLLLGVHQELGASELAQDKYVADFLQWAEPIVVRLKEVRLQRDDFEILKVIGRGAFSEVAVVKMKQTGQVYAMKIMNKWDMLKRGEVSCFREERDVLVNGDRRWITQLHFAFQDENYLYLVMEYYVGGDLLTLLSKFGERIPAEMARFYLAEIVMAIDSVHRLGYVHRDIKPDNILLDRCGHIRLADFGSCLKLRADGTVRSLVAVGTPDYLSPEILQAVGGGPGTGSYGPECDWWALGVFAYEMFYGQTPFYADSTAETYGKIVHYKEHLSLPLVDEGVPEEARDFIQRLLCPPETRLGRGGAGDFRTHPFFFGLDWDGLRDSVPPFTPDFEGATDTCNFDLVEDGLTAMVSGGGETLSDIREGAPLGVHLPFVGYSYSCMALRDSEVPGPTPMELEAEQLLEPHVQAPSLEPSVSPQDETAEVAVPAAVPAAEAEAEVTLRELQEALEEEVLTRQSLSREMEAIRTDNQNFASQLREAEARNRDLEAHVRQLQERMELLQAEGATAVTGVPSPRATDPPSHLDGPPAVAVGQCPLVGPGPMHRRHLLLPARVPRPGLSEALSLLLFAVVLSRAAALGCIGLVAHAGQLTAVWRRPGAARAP

For test [4], the target named is Ribosomal protein S6 kinase alpha-4 (Homo sapiens, UniProt O75676).
For test [5], the target named is Calcium/calmodulin-dependent protein kinase kinase 1 (Homo sapiens, UniProt Q8N5S9).
Test [6] concerns the target Receptor-type tyrosine-protein kinase FLT3 (Homo sapiens, UniProt P36888, D835Y).
Another test concerns the target SRSF protein kinase 1 (Homo sapiens, UniProt Q96SB4).
Test [7] has as its target MAP kinase-interacting serine/threonine-protein kinase 1 (Homo sapiens, UniProt Q9BUB5).
In test [8] the target is Mitogen-activated protein kinase kinase kinase 10 (Homo sapiens, UniProt Q02779).
Test [9] deals with Ribosomal protein S6 kinase alpha-6 (Homo sapiens, UniProt Q9UK32).
In test [10] the target is Vascular endothelial growth factor receptor 3 (Homo sapiens, UniProt P35916).
Test [11] deals with T4, Atypical kinase COQ8B, mitochondrial (Homo sapiens, UniProt Q96D53).
T4 sequence (Q96D53 whole entry): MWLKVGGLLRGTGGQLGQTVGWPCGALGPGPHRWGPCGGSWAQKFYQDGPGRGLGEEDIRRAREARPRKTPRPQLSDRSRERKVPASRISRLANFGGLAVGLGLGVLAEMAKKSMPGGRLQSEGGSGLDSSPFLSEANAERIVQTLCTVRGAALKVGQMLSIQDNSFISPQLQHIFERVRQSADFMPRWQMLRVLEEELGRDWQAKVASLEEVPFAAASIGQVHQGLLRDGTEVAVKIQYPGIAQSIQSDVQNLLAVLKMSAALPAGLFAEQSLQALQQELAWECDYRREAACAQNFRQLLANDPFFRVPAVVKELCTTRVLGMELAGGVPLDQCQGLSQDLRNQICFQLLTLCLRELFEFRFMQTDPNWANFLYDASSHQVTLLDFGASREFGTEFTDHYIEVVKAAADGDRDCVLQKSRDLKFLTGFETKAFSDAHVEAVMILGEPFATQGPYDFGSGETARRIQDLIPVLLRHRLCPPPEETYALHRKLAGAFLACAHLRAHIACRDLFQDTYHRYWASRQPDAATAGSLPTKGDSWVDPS

In test [12] the target is Tyrosine-protein kinase ABL1 (Homo sapiens, UniProt P00519, E255K).
The target in test [13] is Serine/threonine-protein kinase B-raf (Homo sapiens, UniProt P15056).

Each structure is given as a SMILES string. Some results are limits rather than exact numbers.

As to `CCN1CCN(Cc2ccc(NC(=O)Nc3ccc(Oc4cc(NC)ncn4)cc3)cc2C(F)(F)F)CC1` [AST-487], the Kd (at LIM domain kinase 1; in test [1]) was above 10 µM each time.
With `COCC(=O)NC/C=C/c1ccc2ncnc(Nc3ccc(Oc4ccc(C)nc4)c(C)c3)c2c1` [CP-724714], the Kd (in test [2]; in [3]; at LIM domain kinase 1; on Myotonin-protein kinase; in [4]; in [5]) was above 10 µM in each case. In addition, the equilibrium dissociation constant (Kd) (in [6]; at SRSF protein kinase 1; in [7]; in test [1]; in test [8]; in test [9]) was above 10 µM throughout. Also, the Kd in test [10], in [11] and in test [12] was above 10 µM each time.
With `Nc1nc(Nc2ccc(S(N)(=O)=O)cc2)nn1C(=O)c1c(F)cccc1F` [JNJ-7706621], the Kd (commonly the constant that tells how readily two partners part at equilibrium) in test [13] is above 10 µM; in test [2], 1.8 µM; in test [3], 3.6 µM; in test [4] it was above 10 µM; in [7] it was above 10 µM; in [11], above 10 µM.
With `CCOc1cc2ncc(C#N)c(Nc3ccc(F)c(Cl)c3)c2cc1NC(=O)/C=C/CN(C)C` [PELITINIB], the dissociation constant Kd in [13] was above 10 µM; in test [2], above 10 µM; in test [3], above 10 µM; at LIM domain kinase 1, above 10 µM; on Myotonin-protein kinase it was 0.059 µM; in test [4], above 10 µM. Besides, the Kd in test [5] was 5.1 µM; in test [6], 2.8 µM; at SRSF protein kinase 1, above 10 µM; in test [7], above 10 µM; in test [1], above 10 µM; in [8], above 10 µM. The Kd in [9] was above 10 µM; in test [10], above 10 µM; in [11], 6.1 µM.
Take `Oc1ccc(-c2nc(-c3ccncc3)c(-c3ccc(F)cc3)[nH]2)cc1` [SB-202190]: the Kd is 4.8 µM in test [13]; above 10 µM in test [2]; above 10 µM in test [3]; above 10 µM at LIM domain kinase 1; above 10 µM on Myotonin-protein kinase; above 10 µM in test [4]. Moreover, the Kd (in test [5]; in test [6]; on SRSF protein kinase 1; in test [7]; in test [1]; in test [8]) was above 10 µM throughout. Further, the Kd was 0.27 µM in [9], above 10 µM in [10], 4.9 µM in test [11] and above 10 µM in test [12].
Take `NC(=O)c1ccc(-c2nc(-c3ccc4c(c3)OCO4)c(-c3ccccn3)[nH]2)cc1` [SB-431542]: the Kd (in [2]; in test [3]; on LIM domain kinase 1; on Myotonin-protein kinase; in test [4]; in test [5]) was above 10 µM each time. Further, the Kd (at SRSF protein kinase 1; in test [7]; in [1]; in [8]; in test [10]; in test [11]) was above 10 µM throughout. Also, the dissociation constant Kd in test [12] is above 10 µM.
